Data reported in the NIST ThermoML archive (doi:10.1021/je400683g).
Numbers after ± are expanded uncertainties.

Experiments:
[1] = for surface tension liquid-gas: Maximal bubble pressure; for vapor or sublimation pressure: Closed cell (Static) method
[2] = refractive index (Na D-line) (dimensionless); settings: 298.15 K; 101.33 kPa; Liquid; Standard Abbe refractometry
[3] = xn = mol fraction of the nth substance listed; settings: 298.15 K, Maximal bubble pressure

Cc1ccc(C)o1 [2,5-dimethylfuran]
Settings	surface tension liquid-gas [mN/m]
[1], 298.15 K	25.1 ± 0.27

Settings	mass density [kg/m3]
[1], 298.15 K, 101.33 kPa, Liquid, Vibrating tube method	896.54 ± 0.09

[1], Liquid
Settings	vapor or sublimation pressure [kPa]
345.2 K	50 ± 0.25
357.18 K	75 ± 0.41
364.36 K	94 ± 0.56
366.83 K	101.33 ± 0.6

Settings	refractive index
[2]	1.44012 ± 0.00032

Cc1ccc(C)o1 [2,5-dimethylfuran] + CCO
[3]
Settings	surface tension liquid-gas [mN/m]
x2 = 0	25.1 ± 0.27
x2 = 0.049	24.96 ± 0.27
x2 = 0.09	24.89 ± 0.27
x2 = 0.176	24.68 ± 0.27
x2 = 0.29	24.38 ± 0.27
x2 = 0.386	24.22 ± 0.27
x2 = 0.492	23.93 ± 0.27
x2 = 0.594	23.73 ± 0.26
x2 = 0.701	23.4 ± 0.26
x2 = 0.804	23.02 ± 0.26
x2 = 0.915	22.73 ± 0.26
x2 = 0.963	22.5 ± 0.26

CCO [ethanol]
Settings	surface tension liquid-gas [mN/m]
[1], 298.15 K	22.1 ± 0.26

[1], Liquid
Settings	vapor or sublimation pressure [kPa]
323.51 K	30.01 ± 0.08
326.79 K	35.01 ± 0.09
329.68 K	40.01 ± 0.1
332.27 K	45.01 ± 0.1
334.57 K	50 ± 0.2
334.63 K	50.01 ± 0.11
336.8 K	55.01 ± 0.11
338.81 K	60.01 ± 0.12
340.68 K	65.01 ± 0.13
342.43 K	70.01 ± 0.14
344.02 K	75 ± 0.34
344.09 K	75.01 ± 0.14
345.64 K	80.01 ± 0.15
347.13 K	85.01 ± 0.16
348.54 K	90.01 ± 0.16
349.56 K	94 ± 0.42
349.89 K	95.01 ± 0.17
351.51 K	101.33 ± 0.2
351.68 K	102.01 ± 0.18

Settings	refractive index
[2]	1.36068 ± 0.00031

CCO [ethanol] + Cc1ccc(C)o1
Settings	surface tension liquid-gas [mN/m]
[3], x1 = 1	22.1 ± 0.26
